Measurements published in US11926602B1, “4-amino-5-(4-fluoro-3-phenoxyphenyl)-4H-1,2,4-triazole-3-thiol derivatives as antifungal agents” (KING FAISAL UNIVERSITY, priority 2023, dated 2024).
Values after ≈ are worked out from the molar mass of the structure shown.

Tests used:
[1] = test system: Candida parapsilosis (ATCC RCMB 05064); assay: Antifungal microdilution assay, MIC against Candida parapsilosis; assay type: cell-based; settings: Lodderomyces parapsilosis, RCMB05064, 0.49-125 μg/mL tested over 48 h, read-out: Minimum inhibitory concentration C. parapsilosis
Procedure: (§1) The calculation of the minimum inhibitory concentrations (MICs) for the tested compounds was done against Candida parapsilosis (ATCC RCMB 05064); Candida albicans (ATCC RCMB 05064): Candida tropicalis (ATCC RCMB 05064); Aspergillus niger (ATCC RCMB 05064); Trichophyton rubrum (ATCC RCMB 05064). Microdilution assay was used to evaluate the tested compounds (2, 2a-2h) for their antifungal activity (Anaissie, E. J.; Paetznick, V. L.; Ensign, L. G.; Espinel-Ingroff, A.; Galgiani, J. N.; Hitchcock, C. A.; LaRocco. M.; Patterson. T.; Pfaller, M. A.; Rex, J. H.; et al. Microdilution antifungal susceptibility testing of Candida albicans and Cryptococcus neoformans with and without agitation: An eight-center collaborative study. Antimicrob. Agents Chemother. 1996, 40, 2387-2391). Different concentrations were tested from each compound; 0.49, 0.98, 1.95, 3.9, 7.81, 15.63, 31.25, 62.5, and 125 μg/mL over 48 h.
(§2) The observed antifungal activity of the present 4-amino-5-(4-fluoro-3-phenoxyphenyl)-4H-1,2,4-triazole-3-thiol (2) and its derivatives (2a-h) against various fungi are summarized below in Table 2.

[2] = test system: Candida albicans (ATCC RCMB 05064); assay: Antifungal microdilution assay, MIC against Candida albicans; assay type: cell-based; settings: RCMB05064, 0.49-125 μg/mL tested over 48 h, read-out: Minimum inhibitory concentration C. albicans
Procedure: as §1, §2

[3] = test system: Candida tropicalis (ATCC RCMB 05064); assay: Antifungal microdilution assay, MIC against Candida tropicalis; assay type: cell-based; settings: RCMB05064, 0.49-125 μg/mL tested over 48 h, read-out: Minimum inhibitory concentration C. tropicalis
Procedure: as §1, §2

[4] = test system: Aspergillus niger (ATCC RCMB 05064); assay: Antifungal microdilution assay, MIC against Aspergillus niger; assay type: cell-based; settings: RCMB05064, 0.49-125 μg/mL tested over 48 h, read-out: Minimum inhibitory concentration A. niger
Procedure: as §1, §2

[5] = test system: Trichophyton rubrum (ATCC RCMB 05064); assay: Antifungal microdilution assay, MIC against Trichophyton rubrum; assay type: cell-based; settings: RCMB05064, 0.49-125 μg/mL tested over 48 h, read-out: Minimum inhibitory concentration T. rubrum
Procedure: as §1, §2

Row | SMILES | MIC [1] [µg/mL] | MIC [2] [µg/mL] | MIC [3] [µg/mL] | MIC [4] [µg/mL] | MIC [5] [µg/mL] | melting point [°C]
1 | C=CCSc1nnc(-c2ccc(F)c(Oc3ccccc3)c2)n1N [Compound 2h, 3-(Allylthio)-5-(4-fluoro-3-phenoxyphenyl)-4H-1,2,4-triazol-4-amine] | 0.49 (≈ 1.43 µM) | 0.98 (≈ 2.86 µM) | 0.49 (≈ 1.43 µM) | 0.98 (≈ 2.86 µM) | 1.95 (≈ 5.7 µM) | 128
2 | Fc1ccc(/C=N/n2c(-c3ccc(F)c(Oc4ccccc4)c3)n[nH]c2=S)cc1 [Compound 2d] | 7.81 (≈ 19.1 µM) | 7.81 (≈ 19.1 µM) | 15.6 (≈ 38.3 µM) | 7.81 (≈ 19.1 µM) | 15.6 (≈ 38.3 µM) | 172
3 | CSc1nnc(-c2ccc(F)c(Oc3ccccc3)c2)n1N [Compound 2f, 3-(4-Fluoro-3-phenoxyphenyl)-5-(methylthio)-4H-1,2,4-triazol-4-amine] | 3.9 (≈ 12.3 µM) | 7.81 (≈ 24.7 µM) | 7.81 (≈ 24.7 µM) | 3.9 (≈ 12.3 µM) | 7.81 (≈ 24.7 µM) | 152
4 | Nn1c(SCc2cnc(Cl)s2)nnc1-c1ccc(F)c(Oc2ccccc2)c1 [Compound 2g, 3-(((2-Chlorothiazol-5-yl)methyl)thio)-5-(4-fluoro-3-phenoxyphenyl)-4H-1,2,4-triazol-4-amine] | 0.49 (≈ 1.13 µM) | 0.49 (≈ 1.13 µM) | 0.49 (≈ 1.13 µM) | 0.98 (≈ 2.26 µM) | 0.98 (≈ 2.26 µM) | 136
5 | Nn1c(S)nnc1-c1ccc(F)c(Oc2ccccc2)c1 [Compound 2, 4-amino-5-(4-fluoro-3-phenoxyphenyl)-4H-1,2,4-triazole-3-thiol] | 1.95 (≈ 6.45 µM) | 3.9 (≈ 12.9 µM) | 3.9 (≈ 12.9 µM) | 7.81 (≈ 25.8 µM) | 3.9 (≈ 12.9 µM) | 205 to 207
6 | Fc1ccc(-c2n[nH]c(=S)n2/N=C/c2ccccc2)cc1Oc1ccccc1 [Compound 2a] | 0.98 (≈ 2.51 µM) | 1.95 (≈ 4.99 µM) | 0.98 (≈ 2.51 µM) | 1.95 (≈ 4.99 µM) | 1.95 (≈ 4.99 µM) | 189
7 | Fc1ccc(-c2n[nH]c(=S)n2/N=C/c2cccc(Oc3ccccc3)c2)cc1Oc1ccccc1 [Compound 2e] | 1.95 (≈ 4.04 µM) | 1.95 (≈ 4.04 µM) | 1.95 (≈ 4.04 µM) | 3.9 (≈ 8.08 µM) | 7.81 (≈ 16.2 µM) | 132
8 | Fc1ccc(-c2n[nH]c(=S)n2/N=C/c2ccc(Cl)cc2)cc1Oc1ccccc1 [Compound 2b] | 15.6 (≈ 36.8 µM) | 31.2 (≈ 73.5 µM) | 62.5 (≈ 147 µM) | 31.2 (≈ 73.5 µM) | 62.5 (≈ 147 µM) | 174
9 | Fc1ccc(-c2nn(CN3CCOCC3)c(=S)n2/N=C/c2ccc(Cl)cc2)cc1Oc1ccccc1 [Compound 2c] | 15.6 (≈ 29.8 µM) | 15.6 (≈ 29.8 µM) | 32.2 (≈ 61.5 µM) | 15.6 (≈ 29.8 µM) | 32.2 (≈ 61.5 µM) | 146
10 | OC(Cn1cncn1)(Cn1cncn1)c1ccc(F)cc1F [Fluconazole, reference compound] | 0.49 (≈ 1.6 µM) | 0.49 (≈ 1.6 µM) | 0.98 (≈ 3.2 µM) | 0.49 (≈ 1.6 µM) | 1.95 (≈ 6.37 µM) | –
